The values that follow come from patent US4275068A, “Lipid lowering alkylene glycols and ester derivatives thereof” (Siegfried AG, priority 1977, dated 1981).

Data set [1] in a line: in vivo. The settings on record: mouse. From the text:
Toxicity values and activities of the above compounds (1) were investigated by animal tests in accordance with conventional methods as described, for example, in the above mentioned publications, and compared with the corresponding data of clofibrate, the well known cholesterol-lowering agent: […]

In data set [2] the test system is triglyceride content of the blood. The data set can be described thus: Triglyceride-lowering (dosis required for a 25% reduction of the triglyceride content of the blood). It is filed as in vivo. The settings on record: dosis for 25% reduction of triglyceride content of the blood, mg/kg body weight; for ED25: read-out: Triglyceride ED 25. The text has this: The ED25 value, in this instance the dosis in mg/kg body weight required for a 25% reduction of the triglyceride content of the blood, is better, i.e. lower, with all compounds (1) tested so far than the corresponding activity value of 22 of clofibrate.

Data set [3] deals with cholesterol content of the blood. As to the kind of experiment: Cholesterol-lowering (dosis required for a 25% reduction of the cholesterol content of the blood). The data set is classed as in vivo. The following applies: dosis for 25% reduction of cholesterol content of the blood; mg/kg body weight; read-out: Cholesterol ED 25. From the text:
The ED25 value, that is, the dosis in mg/kg body weight required for a 25% reduction of the cholesterol content of the blood, is 151 for clofibrate but better, i.e. lower, with all compounds (1) tested so far.

Molecules are shown by their SMILES. Where a name gives a salt, the structure may show the parent alone.

Broadly, the LD50 is the dose expected to kill half of the subjects tested. A high value points to lower toxicity. In turn, `OCCOc1ccc(Cc2ccc(Cl)cc2)cc1` [Example 1, 2-[4-(4'-chlorobenzyl)-phenoxy]-ethanol] yielded an LD50 in data set [1] of 3000 mg/kg. In addition, the results for the ED25 in data set [2] and in data set [3] were under 50 mg/kg and 80 mg/kg, respectively.

In turn, `OCC(Oc1ccc(Cc2ccc(Cl)cc2)cc1)c1ccccc1` (stereo not drawn) [Example 3, 2-phenyl-2-[4-(4'-chlorobenzyl)-phenoxy]-ethanol] displayed an LD50 in data set [1] of over 3000 mg/kg. Also, in data set [3], the ED25 is over 100 mg/kg.

In the case of `O=C(OCCOc1ccc(Cc2ccc(Cl)cc2)cc1)c1cccnc1` [Example 4, Ester of nicotinic acid and 2-[4-(4'-chlorobenzyl)-phenoxy]-ethanol], the LD50 in data set [1] is over 3000 mg/kg. Moreover, the ED25 stood at 70 mg/kg in data set [2] and 41 mg/kg in data set [3].

In data set [1], `CCC(C)(CO)Oc1ccc(Cc2ccc(Cl)cc2)cc1` (stereo not drawn) [Example 2, 2-methyl-2-[4-(4'-chlorobenzyl)-phenoxy]-butanol] came in with an LD50 of 2960 mg/kg. Moreover, the ED25 was 14 mg/kg in data set [2] and 80 mg/kg in data set [3].

The compound `CCC(C)(COC(=O)c1cccnc1)Oc1ccc(Cc2ccc(Cl)cc2)cc1` (stereo not drawn) [Example 5, Hydrochloride of nicotinic acid ester of 2-methyl-2-[4-(4'-chlorobenzyl)-phenoxy]-butanol] yielded an LD50 in data set [1] of over 3000 mg/kg. The ED25 in data set [2] came out at 40 mg/kg; in data set [3] it was 30 mg/kg.

`CCOC(=O)C(C)(C)Oc1ccc(Cl)cc1` [Clofibrate, reference compound] displayed an LD50 in data set [1] (in vivo) of 2180 mg/kg. Besides, the “Triglyceride ED 25” value in data set [2] is recorded as 222 mg/kg; in data set [2] (listed as clofibrate), 22 mg/kg. For the same compound, the ED25 in data set [3] was determined as 151 mg/kg.

Take `CC(=O)Oc1ccccc1C(=O)OCCOc1ccc(Cc2ccc(Cl)cc2)cc1` [Example 6, Acetylsalicylic acid ester of 2-[4-(4'-chlorobenzyl)-phenoxy]-ethanol]: in data set [1], the LD50 was over 3000 mg/kg. Also, the ED25 was over 100 mg/kg in data set [2] and 70 mg/kg in data set [3].
